Values quoted from earlier work in patent US6514973B1, “Compositions for the treatment and prevention of neurological and pathopsychological diseases” (Merck Patent Geseilschaft Mit Beschrankter Haftung, priority 1998, dated 2003).

time until appearance in the blood after oral administration: about 30 minutes
Substance: Phosphatidylserines
